Data taken from US6914064B2, “1,4-Disubstituted piperazine derivatives useful as uro-selective α1-adrenoceptor blockers” (Ranbaxy Laboratories Limited, priority 2000, dated 2005).

Experiments:
[1] = target: T1, α1A adrenoceptor (prostate) (Rattus norvegicus, UniProt P43140); assay: In vitro functional study, antagonism of phenylepinephrine-induced contraction of prostate; format: biochemical; details: for Selectivity α1A/α1B / Selectivity α1A/α1D: functional assays, from pKB values; for Kb: prostate, phenylepinephrine, tested compound at 0.1, 1 and 10 mM, read-out: α Adrenoceptor Subtype (pKB) α1A (converted)
T1 construct: from tissue; host or cells: isolated prostate tissue
T1 sequence (P43140 1-466): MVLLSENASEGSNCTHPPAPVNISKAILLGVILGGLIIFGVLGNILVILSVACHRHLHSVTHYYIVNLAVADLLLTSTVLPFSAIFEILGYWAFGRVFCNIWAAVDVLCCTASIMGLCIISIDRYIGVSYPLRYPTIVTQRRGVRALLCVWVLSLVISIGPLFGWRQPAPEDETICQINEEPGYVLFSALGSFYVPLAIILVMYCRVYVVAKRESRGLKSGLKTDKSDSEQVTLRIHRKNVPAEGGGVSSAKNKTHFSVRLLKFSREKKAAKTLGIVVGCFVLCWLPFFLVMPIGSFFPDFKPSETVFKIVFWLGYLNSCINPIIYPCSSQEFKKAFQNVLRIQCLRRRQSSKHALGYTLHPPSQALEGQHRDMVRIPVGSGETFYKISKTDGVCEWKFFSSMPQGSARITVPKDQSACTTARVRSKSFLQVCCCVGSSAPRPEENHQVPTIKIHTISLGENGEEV
From the text: (§1) In order to study selectivity of action of these compounds towards different α-adrenoceptor subtypes, the ability of these compounds to antagonise α1-adrenoceptor agonist induced contractile response on aorta (α1Dprostate (α1A and spleen (α1B was studied. Aorta and spleen tissues were isolated from urethane anaesthetised (1.5 gm/kg) male wistar rats. Isolated tissues were mounted in organ bath containing Krebs Henseleit buffer of following composition (mM): NaCl 118; KCl 4.7; CaCl2 2.5; MgSO4. 7H2O 1.2; NaHCO3 25; KH2PO41.2; glucose 11.5. Buffer was maintained at 37° C. and aereated with a mixture of 95% O2 and 5% CO2. A resting tension of 2 g (aorta) or 1 g (spleen and prostate)was applied to tissues. Contractile response was monitored using a force displacement transducer and recorded on chart recorders. Tissues were allowed to equilibrate for 2 hours. At the end of equilibration period, concentration response curves to norepinephrine (aorta) and phenylepinephrine (spleen and prostate) were obtained in absence and presence of tested compound (at concentration of 0.1,1 and 10 mM). Antagonist affinity was calculated and expressed as pKB vales in Table II.

[2] = system: phenylephrine response on mean arterial pressure (MAP) and intraurethral pressure (IUP); assay: In vivo uroselectivity study in conscious beagle dogs; details: for Area Under Curve IUP / Area Under Curve MAP: percent change of phenylephrine (16 μg/kg i.v.) response, 0.5-24 hours
From the text: In order to assess the uroselectivity in vivo, the effects of these compounds were studied on mean arterial pressure (MAP) and intraurethral pressure (IUP) in conscious beagle dogs as per the method of Brune et. al. (Pharmacol 1996, 53:356-368). Briefly, male dogs were instrumented for chronic continuous measurement of arterial blood pressure by implanting a telemetry transmitter (TL11M2-D70-PCT, Data Sci. International, St. Paul, Minn. USA) into the femoral artery, two weeks prior to the study. During the recovery period, the animal was acclimatized to stay in the sling restraint. On the day of testing, overnight fasted animal was placed in the sling restraint. A Swan-Ganz. Balloon tipped catheter was introduced into the urethra at the level of prostate and the balloon was inflated (Brune. et. al. 1996). After recording the base line readings, effect of 16 μg/kg, phenylephrine (i.v.) on MAP and IUP was recorded. The response of phenylephrine to MAP and IUP were recorded at 0.5, 1, 2, 3, 4, 6, 9 and 24 hours after the oral administration of vehicle or the test drug. The changes in MAP was recorded on line using Dataquest Software (Data Sci. International. St. Paul, Minn. USA) and IUP was recorded on a Grass Polygraph (Model 7, Grass Instruments, USA). The change in phenylephrine response on MAP and IUP administration after the test drug administration was calculated as percent change of that of control values. Area under curve was calculated and the ratio of the values for MAP and IUP was used for calculating the uroselectivity (Table III)

[3] = target: T2, α1D adrenoceptor (aorta) (Rattus norvegicus, UniProt P23944); assay: In vitro functional study, antagonism of norepinephrine-induced contraction of aorta; format: biochemical; details: tested compound at 0.1, 1 and 10 mM, read-out: α Adrenoceptor Subtype (pKB) α1D (converted)
T2 construct: Isolated tissues were mounted in organ bath containing Krebs Henseleit buffer; from tissue; host or cells: isolated aorta of male wistar rats
T2 sequence (P23944 1-561): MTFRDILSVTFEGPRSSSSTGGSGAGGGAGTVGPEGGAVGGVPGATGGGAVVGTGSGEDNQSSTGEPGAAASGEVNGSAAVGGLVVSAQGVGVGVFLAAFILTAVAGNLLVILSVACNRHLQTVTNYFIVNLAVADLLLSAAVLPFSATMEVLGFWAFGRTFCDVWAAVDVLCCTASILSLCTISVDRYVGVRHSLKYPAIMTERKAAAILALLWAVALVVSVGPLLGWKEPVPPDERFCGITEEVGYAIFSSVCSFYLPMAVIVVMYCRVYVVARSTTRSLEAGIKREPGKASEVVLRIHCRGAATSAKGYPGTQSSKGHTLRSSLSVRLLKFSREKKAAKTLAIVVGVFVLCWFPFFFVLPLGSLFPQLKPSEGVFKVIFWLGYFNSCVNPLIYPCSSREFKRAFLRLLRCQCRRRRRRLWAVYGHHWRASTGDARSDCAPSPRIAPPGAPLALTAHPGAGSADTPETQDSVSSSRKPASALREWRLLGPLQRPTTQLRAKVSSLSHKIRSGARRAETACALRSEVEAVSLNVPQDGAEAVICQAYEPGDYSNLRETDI
From the text: as §1

Structure (SMILES)	Selectivity α1A/α1B [1]	Selectivity α1A/α1D [1]	Kb [1] [nM]	Uroselectivity Ratio IUP/MAP ([2]; 3 μg/kg p.o.)	Area Under Curve IUP ([2]; 3 μg/kg p.o.)	Area Under Curve MAP ([2]; 3 μg/kg p.o.)	Kb [3] [nM]	Uroselectivity Ratio IUP/MAP ([2]; 10 μg/kg p.o.)	Area Under Curve IUP ([2]; 10 μg/kg p.o.)	Area Under Curve MAP ([2]; 10 μg/kg p.o.)	Uroselectivity Ratio IUP/MAP ([2]; 100 μg/kg p.o.)	Area Under Curve IUP ([2]; 100 μg/kg p.o.)	Area Under Curve MAP ([2]; 100 μg/kg p.o.)
CCCOc1ccccc1N1CCN(CCCN2C(=O)C3CC=CCC3C2=O)CC1.Cl (stereo not shown) [Compound 24, 2-[3-{4-(2-Propoxyphenyl)piperazin-1-yl}propyl]-3a,4,7,7a-tetrahydro-1H-isoindole-1,3(2H)-dione hydrochloride]	355	13	0.0398	7.6	522	68	0.537						
CCOc1ccccc1N1CCN(CCCN2C(=O)C3CC=CCC3C2=O)CC1.Cl (stereo not shown) [Compound 11, 2-[3-{4-(2-Ethoxyphenyl)piperazin-1-yl}propyl]-3a,4,7,7a-tetrahydro-1H-isoindole-1,3(2H)-dione hydrochloride]	47	15	0.112				1.74	66	661	10			
CC(C)Oc1ccccc1N1CCN(CCCN2C(=O)C3CC=CCC3C2=O)CC1.Cl (stereo not shown) [Compound 23, 2-[3-{4-(2-Isopropoxyphenyl)piperazin-1-yl}propyl]-3a,4,7,7a-tetrahydro-1H-isoindole-1,3(2H)-dione hydrochloride]	170	1	0.115	4	790	197	0.123						
COc1ccccc1N1CCN(CCCN2C(=O)C3CC=CCC3C2=O)CC1.Cl (stereo not shown) [Compound 01, 2-[3-{4-(2-Methoxyphenyl)piperazin-1-yl}propyl]-3a,4,7,7a-tetrahydro-1H-isoindole-1,3(2H)-dione hydrochloride]	41	4	0.537				2.29				5.54	514	93
